Results reported in US12285407B2, “Bis-indolylmethane derivatives and uses thereof” (The University of The West Indies, priority 2018, dated 2025).
Read-outs that look alike come from different tables or passages of the source.

Experiments:
Enterococcus faecium = assay: Checkerboard synergy (FICI) of antibiotics with SP-BIM; assay type: cell-based; settings: Enterococcus faecium, Enterococcus faecium; for MIC: 24 h, antibiotic alone, read-out: MIC antibiotic only
Streptococcus pneumoniae [1] = assay: as above; assay type: cell-based; settings: for MIC: 24 h, antibiotic alone, read-out: MIC antibiotic only
Escherichia coli [2] = assay: microbe, parasite or virus in culture; assay type: cell-based; settings: antibiotic alone, Table 6, read-out: MIC of antibiotic, No compound
[3] = tested on: clinical antibiotic resistant isolates of Enterococcus faecium; assay: Checkerboard resistance breaking by SP-BIM 13; assay type: cell-based; settings: for FIC compound / Rescue concentration of SP-BIM 13: SP-BIM 13 with the labelled antibiotic; for Interpretation / Σ FIC: antibiotic + SP-BIM 13; for MIC of antibiotic only: antibiotic alone; for FIC antibiotic: combination with SP-BIM 13; for MIC of antibiotic in combination: with SP-BIM 13 at rescue concentration
Klebsiella pneumoniae [4] = assay: Adjuvant broth microdilution (antibiotic MIC with SP-BIM at 50 μg/mL); assay type: cell-based; settings: Klebsiella pneumoniae; antibiotic alone; Table 7; read-out: MIC of antibiotic, No compound
Candida albicans = assay: Checkerboard synergy (FICI) of antibiotics with SP-BIM; parameters: MIC SP-BIM 13 only / MIC in combination: Antibiotic / MIC antibiotic only: unit not given beside the values
Bacillus cereus = assay: as above; assay type: cell-based; settings: for MIC: 24 h, antibiotic alone, read-out: MIC antibiotic only
Staphylococcus aureus = assay: as above; assay type: cell-based; settings: Staphylococcus aureus, Staphylococcus aureus; for MIC: 24 h, antibiotic alone, read-out: MIC antibiotic only
Klebsiella pneumoniae [5] = assay: as above; assay type: cell-based; settings: for MIC: 24 h, antibiotic alone, read-out: MIC antibiotic only
Streptococcus pneumoniae [6] = assay: Adjuvant broth microdilution (antibiotic MIC with SP-BIM at 50 μg/mL); assay type: cell-based; settings: Streptococcus pneumoniae; Streptococcus pneumonia; antibiotic alone; Table 5; read-out: MIC of antibiotic, No compound
MRSA = assay: as above; assay type: cell-based, Staphylococcus aureus; settings: Staphylococcus aureus, antibiotic alone, Table 4, read-out: MIC of antibiotic, No compound
Escherichia coli [7] = assay: Checkerboard synergy (FICI) of antibiotics with SP-BIM; parameters: MIC SP-BIM 13 only / MIC in combination: Antibiotic: unit not given beside the values; settings: for MIC: 24 h
[8] = SP-BIM 9 concentration in combination with the labelled antibiotic
[9] = SP-BIM 9 in combination with the labelled antibiotic
[10] = SP-BIM 13 in combination with the labelled antibiotic
[11] = antibiotic in combination with SP-BIM 9
[12] = antibiotic in combination with SP-BIM 13
[13] = Streptococcus pneumonia (title: Streptococcus pyogenes), antibiotic + SP-BIM 9
[14] = Streptococcus pneumoniae, antibiotic + SP-BIM 13
[15] = MIC of the antibiotic in combination with SP-BIM 13

[H]/N=C(/N)N[C@H]1[C@H](O)[C@@H](O)[C@H](O[C@@H]2O[C@@H](C)[C@](O)(C=O)[C@H]2O[C@@H]2O[C@@H](CO)[C@H](O)[C@@H](O)[C@@H]2NC)[C@@H](N/C(N)=N\[H])[C@@H]1O [Streptomycin, streptomycin]
MIC (Enterococcus faecium; SP-BIM 9 checkerboard): 32 µg/mL | MIC (Enterococcus faecium; SP-BIM 13 checkerboard): 32 µg/mL | MIC in combination, SP-BIM 9 (Enterococcus faecium; [8]): 16 µg/mL | FIC of SP-BIM 9 (Enterococcus faecium; [9]): 0.1 | FIC of SP-BIM 13 (Enterococcus faecium; [10]): 0.5 | Interpretation (Enterococcus faecium; antibiotic + SP-BIM 9): Synergy (Synergy: FICI≤0.5) | Σ FIC (Enterococcus faecium; antibiotic + SP-BIM 9): ≤0.3 | Interpretation (Enterococcus faecium; antibiotic + SP-BIM 13): Additive (Additive: FICI>0.5-1.0) | Σ FIC (Enterococcus faecium; antibiotic + SP-BIM 13): 0.6 | MIC in combination, Antibiotic (Enterococcus faecium; [11]): 8 µg/mL | MIC in combination, Antibiotic (Enterococcus faecium; [12]): 4 µg/mL | FIC of antibiotic (Enterococcus faecium; in combination with SP-BIM 9): 0.3 | FIC of antibiotic (Enterococcus faecium; in combination with SP-BIM 13): 0.1 | FIC of SP-BIM 9 (Streptococcus pneumoniae [1]; Streptococcus pneumonia (title: Streptococcus pyogenes), SP-BIM 9 in combination with the labelled antibiotic): 0.06 | Interpretation (Streptococcus pneumoniae [1]; [13]): Synergy (Synergy: FICI≤0.5) | Σ FIC (Streptococcus pneumoniae [1]; [13]): <0.07 | MIC in combination, Antibiotic (Streptococcus pneumoniae [1]; Streptococcus pneumonia (title: Streptococcus pyogenes), antibiotic in combination with SP-BIM 9): 0.2 µg/mL | FIC of antibiotic (Streptococcus pneumoniae [1]; Streptococcus pneumonia (title: Streptococcus pyogenes), in combination with SP-BIM 9): 0.01 | MIC (Streptococcus pneumoniae [1]; Streptococcus pneumoniae, Streptococcus pneumonia (title: Streptococcus pyogenes), SP-BIM 9 checkerboard): 32 µg/mL | MIC (Streptococcus pneumoniae [1]; Streptococcus pneumoniae, Streptococcus pneumoniae, SP-BIM 13 checkerboard): 32 µg/mL | FIC of SP-BIM 13 (Streptococcus pneumoniae [1]; Streptococcus pneumoniae, SP-BIM 13 in combination with the labelled antibiotic): 0.3 | Interpretation (Streptococcus pneumoniae [1]; [14]): Synergy (Synergy: FICI≤0.5) | Σ FIC (Streptococcus pneumoniae [1]; [14]): <0.3 | MIC in combination, Antibiotic (Streptococcus pneumoniae [1]; Streptococcus pneumoniae, antibiotic in combination with SP-BIM 13): 1 µg/mL | FIC of antibiotic (Streptococcus pneumoniae [1]; Streptococcus pneumoniae, in combination with SP-BIM 13): 0.0 | MIC (Escherichia coli [2]): 8 µg/mL | FIC compound ([3]; E. faecium strain 21955): 0252 | Rescue concentration of SP-BIM 13 ([3]; E. faecium strain 21955): 63 µg/mL | Interpretation ([3]; E. faecium strain 21955): Synergy (Synergy: FICI≤0.5) | Σ FIC ([3]; E. faecium strain 21955): <0.26 | MIC of antibiotic only ([3]; E. faecium strain 21955): 125 µg/mL | FIC antibiotic ([3]; E. faecium strain 21955): 0.004 | MIC of antibiotic in combination ([3]; E. faecium strain 21955): 0.5 µg/mL | FIC compound ([3]; E. faecium strain 23668): 0.064 | Rescue concentration of SP-BIM 13 ([3]; E. faecium strain 23668): 16 µg/mL | Interpretation ([3]; E. faecium strain 23668): Synergy (Synergy: FICI≤0.5) | Σ FIC ([3]; E. faecium strain 23668): <0.08 | MIC of antibiotic only ([3]; E. faecium strain 23668): 63 µg/mL | FIC antibiotic ([3]; E. faecium strain 23668): 0.016 | MIC of antibiotic in combination ([3]; E. faecium strain 23668): 1 µg/mL | FIC compound ([3]; E. faecium strain RC63): 0.032 | Rescue concentration of SP-BIM 13 ([3]; E. faecium strain RC63): 8 µg/mL | Interpretation ([3]; E. faecium strain RC63): Synergy (Synergy: FICI≤0.5) | Σ FIC ([3]; E. faecium strain RC63): <0.04 | MIC of antibiotic only ([3]; E. faecium strain RC63): 125 µg/mL | FIC antibiotic ([3]; E. faecium strain RC63): 0.008 | MIC of antibiotic in combination ([3]; E. faecium strain RC63): 1 µg/mL | MIC (Klebsiella pneumoniae [4]): 32 µg/mL | MIC (Candida albicans; 24 h, read-out: MIC antibiotic only): > 250 µg/mL | MIC in combination: Antibiotic (Candida albicans; [15]): 16 | FIC of SP-BIM 13 (Candida albicans; [10]): 0.1 | Interpretation (Candida albicans; antibiotic + SP-BIM 13): Synergy (Synergy: FICI≤0.5) | Σ FIC (Candida albicans; antibiotic + SP-BIM 13): <0.2 | FIC of antibiotic (Candida albicans; combination with SP-BIM 13): 0.1 | MIC (Bacillus cereus; SP-BIM 9 checkerboard): 4 µg/mL | MIC (Bacillus cereus; SP-BIM 13 checkerboard): 4 µg/mL | MIC in combination, SP-BIM 9 (Bacillus cereus; [8]): >250 µg/mL | FIC of SP-BIM 9 (Bacillus cereus; [9]): 1 | FIC of SP-BIM 13 (Bacillus cereus; [10]): 0.1 | Interpretation (Bacillus cereus; antibiotic + SP-BIM 9): Synergy (Synergy: FICI≤0.5) | Σ FIC (Bacillus cereus; antibiotic + SP-BIM 9): <1.1 | Interpretation (Bacillus cereus; antibiotic + SP-BIM 13): Synergy (Synergy: FICI≤0.5) | Σ FIC (Bacillus cereus; antibiotic + SP-BIM 13): <0.3 | MIC in combination, Antibiotic (Bacillus cereus; [11]): 0.5 µg/mL | MIC in combination, Antibiotic (Bacillus cereus; [12]): 0.5 µg/mL | FIC of antibiotic (Bacillus cereus; in combination with SP-BIM 9): 0.125 | FIC of antibiotic (Bacillus cereus; in combination with SP-BIM 13): 0.13 | MIC (Staphylococcus aureus; SP-BIM 9 checkerboard): 8 µg/mL | MIC (Staphylococcus aureus; SP-BIM 13 checkerboard): 8 µg/mL | FIC of SP-BIM 9 (Staphylococcus aureus; [9]): 0.25 | FIC of SP-BIM 13 (Staphylococcus aureus; [10]): 0.3 | Interpretation (Staphylococcus aureus; antibiotic + SP-BIM 9): Synergy (Synergy: FICI≤0.5) | Σ FIC (Staphylococcus aureus; antibiotic + SP-BIM 9): <0.38 | Interpretation (Staphylococcus aureus; antibiotic + SP-BIM 13): Synergy (Synergy: FICI≤0.5) | Σ FIC (Staphylococcus aureus; antibiotic + SP-BIM 13): 0.3 | MIC in combination, Antibiotic (Staphylococcus aureus; [11]): 1.0 µg/mL | MIC in combination, Antibiotic (Staphylococcus aureus; [12]): 0.25 µg/mL | FIC of antibiotic (Staphylococcus aureus; in combination with SP-BIM 9): 0.13 | FIC of antibiotic (Staphylococcus aureus; in combination with SP-BIM 13): 0.0 | MIC (Klebsiella pneumoniae [5]; SP-BIM 9 checkerboard): 125 µg/mL | MIC (Klebsiella pneumoniae [5]; SP-BIM 13 checkerboard): 125 µg/mL | FIC of SP-BIM 9 (Klebsiella pneumoniae [5]; [9]): 0.5 | FIC of SP-BIM 13 (Klebsiella pneumoniae [5]; [10]): 0.0 | Interpretation (Klebsiella pneumoniae [5]; antibiotic + SP-BIM 9): Additive (Additive: FICI>0.5-1.0) | Σ FIC (Klebsiella pneumoniae [5]; antibiotic + SP-BIM 9): <0.6 | Interpretation (Klebsiella pneumoniae [5]; antibiotic + SP-BIM 13): Synergy (Synergy: FICI≤0.5) | Σ FIC (Klebsiella pneumoniae [5]; antibiotic + SP-BIM 13): <0.3 | MIC in combination, Antibiotic (Klebsiella pneumoniae [5]; [11]): 16 µg/mL | MIC in combination, Antibiotic (Klebsiella pneumoniae [5]; [12]): 32 µg/mL | FIC of antibiotic (Klebsiella pneumoniae [5]; in combination with SP-BIM 9): 0.128 | FIC of antibiotic (Klebsiella pneumoniae [5]; in combination with SP-BIM 13): 0.3 | MIC (Streptococcus pneumoniae [6]): 16 µg/mL | MIC (MRSA): 63 µg/mL | MIC (Escherichia coli [7]; read-out: MIC antibiotic only, Escherichia coli, antibiotic alone): 125 µg/mL | MIC (Escherichia coli [7]; read-out: MIC antibiotic only, Escherichia coli, antibiotic alone, SP-BIM 9 checkerboard): 125 µg/mL | MIC in combination: Antibiotic (Escherichia coli [7]; [15]): 4 | FIC of SP-BIM 9 (Escherichia coli [7]; [9]): 1 | FIC of SP-BIM 13 (Escherichia coli [7]; [10]): 0.3 | Interpretation (Escherichia coli [7]; antibiotic + SP-BIM 9): Indifferent (Indifferent: FICI>1.0-4.0) | Σ FIC (Escherichia coli [7]; antibiotic + SP-BIM 9): <1.1 | Interpretation (Escherichia coli [7]; antibiotic + SP-BIM 13): Synergy (Synergy: FICI≤0.5) | Σ FIC (Escherichia coli [7]; antibiotic + SP-BIM 13): <0.3 | MIC in combination, Antibiotic (Escherichia coli [7]; [11]): 8 µg/mL | FIC of antibiotic (Escherichia coli [7]; combination with SP-BIM 13): 0.0 | FIC of antibiotic (Escherichia coli [7]; in combination with SP-BIM 9): 0.064
